Read-outs that look alike come from different tables or passages of the source.
Experiments:
FKBP = FKBP (Homo sapiens, UniProt P62942); assay: PPIase Inhibition Assay; format: biochemical
Description: 1) Inhibition of PPIase Activity
This assay follows in principle the procedure described in Kofron et al., 1991, Biochemistry 30:6127.
The three main reagents used are PPIase, a substrate for PPIase, and a selected inhibitor compound of the present invention. The basic principle behind this assay is the conversion of the cis isomer of the substrate to the trans form, which conversion is catalyzed by PPIase. Essentially, inhibition of this PPIase activity is measured for the selected compounds. A peptide chymotrypsin substrate containing a proline in the P2 position is only cleaved by chymotrypsin when the Phe-Pro bond is in the trans isomeric configuration. In the presence of excess chymotrypsin, all of the trans peptide isomers are cleaved within approximately five seconds, leaving only cis forms.
The cis peptide will spontaneously convert to the trans isomer at a slow rate. The cis to trans conversion is catalyzed by isomerases at a much faster rate than this spontaneous conversion. Proteins with PPIase activity are examples of such isomerases. After isomerization, the peptide is cleaved by chymotrypsin releasing p-nitroaniline which can be monitored at 390 nm. The rate of release is then calculated using a first order rate plus offset equation utilizing the ENZFITTER program (Leatherbarrow, BIOSOFT, Cambridge, United Kingdom).
In a plastic cuvette are added 950 ul of ice cold assay buffer (25 mM HEPES, pH 7.8, 100 mM NaCl), 10 uL of FKBP (2.5 uM in 10 mM Tris-Cl pH 7.5, 100 mM NaCl, 1 mM dithiothreitol), 25 ul of chymotrypsin (50 mg/ml in 1 mM HCl) and 10 ul of the test compound at various concentrations in dimethyl sulphoxide. The reaction is initiated by addition of 5 ul of substrate (Succinyl-Ala-Phe-Pro-Phe-para-nitroanilide, 5 mg/ml in 235 mM LiCl in trifluoroethanol).
The absorbance at 390 nm versus time is monitored for 90 sec using a Beckman DU70 spectrophotometer. The absorbance versus time data files are transferred to an IBM XT computer and the rate constants determined using the commercial enzfitter program. For each set of data, the uncatalyzed rate of conversion is measured and the uninhibited enzymatic rate determined. The data are expressed as % Activity remaining and are calculated as follows:
% Activity Remaining=(kobs -kuncat)/(kuninh
where kobs is the rate in the presence of a selected test compound, kuncat is the rate in the absence of enzyme, and kuninh is the rate in the presence of enzyme
Data was plotted as the velocity in the absence of the inhibitor (V-) divided by the velocity in the presence of inhibitor (V+) versus the inhibitor concentration. The IC50 can be determined following linear regression as the inhibitor concentration where

human T-cells = assay: Suppression of Human T-Cell Proliferation Assay (PHA-stimulated, [3H]-thymidine incorporation); format: cell-based; settings: read-out: IC50
From the text: 2) Human T Lymphocyte Inhibition
Inhibition of mitogen-induced T-cell proliferation can be used to profile immunosuppressive activity of test compounds. In the description of the assay which follows, mitogen-induced T-cell activation was used to test the inhibitory potencies of select compounds of the present invention.
In an assay similar to that described by Bradley in Mishell et al. (Eds.), 1980, Selected Methods in Cellular Immunology, pp 156-161, W. H. Freeman & Co., San Fransisco, Calif., T-cells were stimulated by incubation with phytohemagglutinin (PHA) which binds to cell surface molecules, including the T-cell receptor. This stimulation results in proliferation which can be measured by incorporation of [^3 H]-thymidine into cellular DNA.
The immunosuppressive properties of the compounds of the present invention can be determined by adding various concentrations of the compounds to these cultures and measuring the effect on T-cell proliferation.
Suppression of Human T-Cell Proliferation Assay
Fresh LeukoPaks were obtained from the New York Blood Center, New York, N.Y. The cells, including erythrocytes and leukocytes, were diluted with Hank's Balanced Salt Solution (HBSS) (GIBCO, Grand Island, N.Y.) and layered over Lymphoprep (Nycomed Pharma AS, Oslo, Norway) in sterile 50 ml conical centrifuge tubes. Lymphocytes were isolated at the Hank's/Nycomed interface after centrifugation at 2000×g, 4° C. for 15 min. The lymphocytes were washed with Minimal Essential Medium (GIBCO) containing 2% fetal bovine serum (FBS) (Sigma Chemical Co., St. Louis, Mo.), 1% HEPES buffer (GIBCO) and 1% Penicillin-Stretomycin solution (GIBCO).
T-cells were further purified essentially by sheep erythrocyte (SRBC) rosetting as described by Morimoto et al., 1983, J. Immunol. 130:157. The isolated lymphocytes were adjusted to 2×10^7 cells/ml and 5 ml aliquots of the cell suspension were incubated for 10 minutes at room temperature with 5 ml of a 5% SRBC (Cappel, Organon Technika Corp., West Chester, Pa.) suspension. The cells were gently pelleted by centrifugation at 300 rpm for 10 minutes, followed by a 1 hour incubation at room temperature to allow rosette formation. The cells were gently resuspended,layered over Lymphoprep and centrifuged for 30 minutes at 500×g. The pellet, containing rosetted T-cells and SRBC was treated with ice cold buffered ammonium chloride (GIBCO) to lyse the erythrocytes. T-cells were washed twice with HBSS.
Purified T-cells were resuspended at 2×10^6 cells/ml in complete culture medium composed of RPMI-1640 (Whittaker Bioproducts, Walkerville, Md.) with 10% FBS (Sigma), 2 mM L-glutamine (GIBCO), 1% Penicillin-Streptomycin (GIBCO) and 15 mM HEPES (GIBCO). In 96-well plates (Becton Dickinson, Lincoln Park, N.J.), 0.1 ml aliquots of T-cell suspension were mixed with 0.05 ml of 40 μg/ml PHA-M (Sigma). The compounds of this invention were dissolved in dimethylsulfoxide at 10 mM and various dilutions in complete medium were added in duplicate wells (0.05 ml/well). The plates were incubated at 37° C. in a humidified atmosphere of 5% carbon dioxide and 95% air for 72 hours.
Proliferation was assessed by measurement of [^3 H]-thymidine incorporation. During the last 6 hours of incubation, the cells were pulse labelled with 1 μCi/well of [^3 H]-thymidine (New England Nuclear, Boston, Mass.). The cells were harvested onto glass fiber paper using a plate harvester and the radioactivity incorporated into cellular DNA corresponding to individual wells was measured by standard liquid scintillation counting methods.

[1] = concentration inhibiting [3H]-thymidine incorporation of PHA-stimulated T-cells by 50%, 72 hours, TABLE 2
[2] = concentration of inhibitor required for 50% inhibition of enzyme activity, FKBP, substrate Succinyl-Ala-Phe-Pro-Phe-para-nitroanilide, TABLE I

Chain of FKBP (P62942 whole entry): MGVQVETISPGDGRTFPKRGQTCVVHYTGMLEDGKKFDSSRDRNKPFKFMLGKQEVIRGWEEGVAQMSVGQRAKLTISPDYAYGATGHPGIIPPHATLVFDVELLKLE

Molecule	IC50 (FKBP)	IC50 (human T-cells; [1])	IC50 (FKBP; [2])	IC50 (human T-cells)
CC[C@H](C)[C@H](NC(=O)[C@@H]1CCCN1CC(=O)c1ccc(-c2ccccc2)cc1)C(=O)N1CCc2ccccc2C1 [Example 50, L-Isoleucine, N-[1-(2-(Biphenyl-4-yl)-2-Oxoethyl)-L-Prolyl] 1,2,3,4-Tetrahydroisoquinolinamide]	50 µM	–	–	–
CC[C@H](C)[C@H](NC(=O)[C@@H]1CCCN1CC(=O)NCCO)C(=O)NCc1ccccc1 [Example 76, L-Isoleucine, N-[1-(2-(2-Hydroxyethylamine)-2-Oxoethyl)-L-Prolyl] Benzylamide]	–	> 50 µM	> 5 µM	–
CC[C@H](C)[C@H](NC(=O)[C@@H]1CCCN1C(C)C(=O)c1ccccc1)C(=O)NCc1ccccc1 (stereo partly drawn) [Example 19, L-Isoleucine, N-[1-(1-Methyl-2-Phenyl-2-Oxoethyl)-L-Prolyl] Benzylamide]	–	18 µM	< 50 µM	–
O=C(CN1CCC[C@H]1C(=O)N[C@@H](Cc1ccccc1)C(=O)NCc1ccccc1)c1ccc(-c2ccccc2)cc1 [Example 53, L-Phenylalanine, N-[1-(2-(Biphenyl-4-yl)-2-Oxoethyl)-L-Prolyl] Benzylamide]	> 50 µM	–	–	16 µM
CC[C@H](C)[C@H](NC(=O)[C@@H]1CCCN1CC(=O)c1ccccc1)C(=O)NCc1ccccc1 [Example 7, L-Isoleucine, N-[1-(2-Phenyl-2-Oxoethyl)-L-Prolyl] Benzylamide]	–	< 50 µM	2.7 µM	–
CC[C@H](C)[C@H](NC(=O)[C@@H]1CCCN1CC(=O)c1ccc(O)c(O)c1)C(=O)NCc1ccccc1 [Example 21, L-Isoleucine, N-[1-(2-(3,4-Dihydroxyphenyl)-2-Oxoethyl)-L-Prolyl] Benzylamide]	–	34 µM	< 50 µM	–
CC[C@H](C)[C@H](NC(=O)[C@@H]1CCCN1CC(=O)N1CCC(Cc2ccccc2)CC1)C(=O)NCc1ccccc1 [Example 74, L-Isoleucine, N-[1-[2-(N-(4-Benzylpiperidyl))-2-Oxoethyl]-L-Prolyl] Benzylamide]	–	< 50 µM	< 5 µM	–
L-Isoleucine, N-[1-(2-(Carbo-tert-Butoxy)-2-Oxoethyl)-L-Proline] Benzylamide [Example 25]	–	63 µM	0.99 µM	–
CC[C@H](C)[C@H](NC(=O)[C@@H]1CCCN1CC(=O)c1ccc(C)cc1C)C(=O)NCc1ccccc1 [Example 32, L-Isoleucine, N-[1-(2-(2,4-Dimethylphenyl)-2-Oxoethyl)-L-Prolyl] Benzylamide]	–	41 µM	< 5 µM	–
CC[C@H](C)[C@@H](C(=O)NCc1ccccc1)N(C)C(=O)[C@@H]1CCCN1CC(=O)c1ccccc1 [Example 16, L-Isoleucine, N-Methyl-N-[1-(2-Phenyl-2-Oxoethyl)-L-Prolyl] Benzylamide]	–	> 50 µM	> 50 µM	–
CC[C@H](C)[C@H](NC(=O)[C@@H]1CCCN1CC(=O)c1ccc2ccccc2c1)C(=O)NCc1ccccc1 [Example 8, L-Isoleucine, N-[1-(2-Naphth-2-yl-2-Oxoethyl)-L-Prolyl] Benzylamide]	–	50 µM	3.4 µM	–
CC[C@H](C)[C@H](NC(=O)[C@@H]1CCCN1CC(=O)c1ccc(-c2ccccc2)cc1)C(=O)OCc1ccccc1 [Example 51, L-Isoleucine, N-[1-(2-(Biphenyl-4-yl)-2-Oxoethyl)-L-Prolyl] Benzyl Ester]	> 50 µM	–	–	–
CC[C@H](C)[C@H](NC(=O)[C@@H]1CCCN1CC(=O)NCc1ccccc1)C(=O)NCc1ccccc1 [Example 80, L-Isoleucine, N-[1-[2-(N-(Phenylmethylamino))-2-Oxoethyl]-L-Prolyl] Benzylamide]	–	–	> 5 µM	–
CC[C@H](C)[C@H](NC(=O)[C@@H]1CCCN1CC(=O)OCc1ccccc1)C(=O)NCc1ccccc1 [Example 5, L-Isoleucine, N-[1-(2-Benzyloxy-2-Oxoethyl)-L-Prolyl] Benzylamide]	–	–	2.2 µM	–
CC[C@H](C)[C@H](NC(=O)[C@@H]1CCCN1CC(=O)c1ccc([N+](=O)[O-])cc1)C(=O)NCc1ccccc1 [Example 30, L-Isoleucine, N-[1-(2-(4-Nitrophenyl)-2-Oxoethyl)-L-Prolyl] Benzylamide]	–	–	< 50 µM	–
CC[C@H](C)[C@H](NC(=O)[C@@H]1CCCN1CC(=O)OC)C(=O)NCc1ccccc1 [Example 6, L-Isoleucine, N-[1-(2-Methoxy-2-Oxoethyl)-L-Prolyl] Benzylamide]	< 50 µM	–	–	–
CC[C@H](C)[C@H](NC(=O)[C@@H]1CCCN1CC(=O)c1ccc(OC)cc1OC)C(=O)NCc1ccccc1 [Example 28, L-Isoleucine, N-[1-(2-(2,4-Dimethoxyphenyl)-2-Oxoethyl)-L-Prolyl] Benzylamide]	–	–	< 50 µM	–
CC[C@H](C)[C@H](NC(=O)[C@@H]1CCCN1CC(=O)c1ccccc1[N+](=O)[O-])C(=O)NCc1ccccc1 [Example 29, L-Isoleucine, N-[1-(2-(2-Nitrophenyl)-2-Oxoethyl)-L-Prolyl] Benzylamide]	–	–	< 50 µM	–
CC[C@H](C)[C@H](NC(=O)[C@@H]1CCCN1CC(=O)NCC1CCCCC1)C(=O)NCc1ccccc1 [Example 81, L-Isoleucine, N-[1-[2-(N-(Cyclohexylmethylamino))-2-Oxoethyl]-L-Prolyl] Benzylamide]	–	–	> 5 µM	–
CSCC[C@H](NC(=O)[C@@H]1CCCN1CC(=O)c1ccc(-c2ccccc2)cc1)C(=O)NCc1ccccc1 [Example 54, L-Methionine, N-[1-(2-(Biphenyl-4-yl)-2-Oxoethyl)-L-Prolyl] Benzylamide]	> 50 µM	–	–	–
CC[C@H](C)[C@H](NC(=O)[C@@H]1CCCN1CC(=O)NC1CCCC1)C(=O)NCc1ccccc1 [Example 79, L-Isoleucine, N-[1-[2-(N-Cyclopentylamino)-2-Oxoethyl]-L-Prolyl] Benzylamide]	–	–	> 5 µM	–
CCOC(=O)C1CCCN(C(=O)CN2CCC[C@H]2C(=O)N[C@H](C(=O)NCc2ccccc2)[C@@H](C)CC)C1 (stereo partly drawn) [Example 72, L-Isoleucine, N-[1-[2-[N-(Piperidine-3-Carboxylic Acid Ethyl Ester)]-2-Oxoethyl]-L-Prolyl] Benzylamide]	–	–	< 5 µM	–
